According to patent US20020091095A1, “Modulation of Fas and FasL expression” (priority 1999, published 2002):

Experiments:
FasL [1] = assay: FasL expression at the cell surface by flow cytometry, MCF-7 cells; assay type: cell-based, human; conditions: MCF-7 breast cancer cells, 100 μg/ml sequence, 48 h, treated vs control cells
Experimental: (§1) Cancer cells and PBMCs were seeded in 6 well flat-bottom microplates and were maintained at 37° C. in a 5% CO2 atmosphere. Unless stated otherwise, 2×10^5 cells/ml were incubated for 48 h with 0 μg/ml (control) or 100 μg/ml ([…]) (treated) of the sequences.
(§2) Fas and FasL expression were measured by flow cytometry using anti-Fas FITC-conjugated monoclonal antibodies and anti-FasL PE-conjugated monoclonal antibodies in a FACScalibur Flow Cytometer (Becton Dickinson, San Jose, Calif., USA) using the CELLQuest program (Becton Dickinson).
(§3) Results are expressed as percentage (%) increase in the expression of Fas and of FasL measured on treated cells compared to control cells.
(§4) MCF-7 human breast cancer cells are a caspase-3 negative, estrogen-dependent human solid tumor model.

FasL [2] = assay: FasL expression at the cell surface by flow cytometry, LNCaP cells; assay type: cell-based, human; conditions: LNCaP prostate cancer cells, 100 μg/ml sequence, 48 h, treated vs control cells
Experimental: as §1, §2, §3
(§5) LNCaP prostate cancer cells are a TGF-beta 1 receptor negative, […], metastatic human solid tumor model.

Fas [3] = assay: Fas expression at the cell surface by flow cytometry, UMUC-3 cells; assay type: cell-based, human; conditions: UMUC-3 bladder cancer cells, 100 μg/ml sequence, 48 h, treated vs control cells
Experimental: as §1, §2, §3
(§6) UMUC-3 bladder cancer cells are a P-glycoprotein overexpressing human cell line.

Fas [4] = assay: Fas expression at the cell surface by flow cytometry, MCF-7 cells; assay type: cell-based, human; conditions: MCF-7 breast cancer cells, 100 μg/ml sequence, 48 h, treated vs control cells
Experimental: as §1, §2, §3, §4

FasL [5] = assay: FasL expression at the cell surface by flow cytometry, PBMCs; assay type: cell-based, human; conditions: 100 μg/ml sequence, 48 h, treated vs control cells
Experimental: (§7) Peripheral blood mononuclear cells (hereinafter, “PBMCs”) were isolated from human blood by Ficoll-Hypaque (Amersham Pharmacia Biotech, Baie d'Urfée, Québec, Canada) density gradient centrifugation.
as §1, §2, §3

FasL [6] = assay: FasL expression at the cell surface by flow cytometry, T-24 cells; assay type: cell-based, human; conditions: T-24 bladder cancer cells, 100 μg/ml sequence, 48 h, treated vs control cells
Experimental: as §1, §2, §3
(§8) T-24 bladder cancer cells are a p53 mutated human cell line T-24 cells (1.0×10^5 cells/ml) were incubated with the 6 base sequences shown in Table 4.

FasL [7] = assay: FasL expression at the cell surface by flow cytometry, SK-OV-3 cells; assay type: cell-based, human; conditions: SK-OV-3 ovarian cancer cells, 100 μg/ml sequence, 48 h, treated vs control cells
Experimental: as §1, §2, §3
(§9) SK-OV-3 ovarian cancer cells are a p53 mutated, p21/waf-1/Cip deleted, p15^ink4B,p16^ink4 deleted metastatic human solid tumor model.

FasL [8] = assay: FasL expression at the cell surface by flow cytometry, Jurkat cells; assay type: cell-based; conditions: Jurkat human leukemia T cells, 100 μg/ml sequence, 48 h, treated vs control cells
Experimental: as §1, §2, §3
(§10) Jurkat human leukemia T cells are an atypical multi-drug resistant human suspension tumor cell model.

Fas [9] = assay: Fas expression at the cell surface by flow cytometry, LNCaP cells; assay type: cell-based, human; conditions: LNCaP prostate cancer cells, 100 μg/ml sequence, 48 h, treated vs control cells
Experimental: as §1, §2, §3, §5

Fas [10] = assay: Fas expression at the cell surface by flow cytometry, PBMCs; assay type: cell-based, human; conditions: 100 μg/ml sequence, 48 h, treated vs control cells
Experimental: as §7, §1, §2, §3

FasL [11] = assay: FasL expression at the cell surface by flow cytometry, OVCAR-3 cells; assay type: cell-based, human; conditions: OVCAR-3 ovarian cancer cells, 100 μg/ml sequence, 48 h, treated vs control cells
Experimental: as §1, §2, §3
(§11) OVCAR-3 ovarian cancer cells are a p53 mutated, p21/waf-1/Cip deleted, metastatic human solid tumor model.

Fas [12] = assay: Fas expression at the cell surface by flow cytometry, OVCAR-3 cells; assay type: cell-based, human; conditions: OVCAR-3 ovarian cancer cells, 100 μg/ml sequence, 48 h, treated vs control cells
Experimental: as §1, §2, §3, §11

FasL [13] = assay: FasL expression at the cell surface by flow cytometry, UMUC-3 cells; assay type: cell-based, human; conditions: UMUC-3 bladder cancer cells, 100 μg/ml sequence, 48 h, treated vs control cells
Experimental: as §1, §2, §3, §6

Fas [14] = assay: Fas expression at the cell surface by flow cytometry, Jurkat cells; assay type: cell-based; conditions: Jurkat human leukemia T cells, 100 μg/ml sequence, 48 h, treated vs control cells
Experimental: as §1, §2, §3, §10

Fas [15] = assay: Fas expression at the cell surface by flow cytometry, SK-OV-3 cells; assay type: cell-based, human; conditions: SK-OV-3 ovarian cancer cells, 100 μg/ml sequence, 48 h, treated vs control cells
Experimental: as §1, §2, §3, §9

Fas [16] = assay: Fas expression at the cell surface by flow cytometry, T-24 cells; assay type: cell-based, human; conditions: T-24 bladder cancer cells, 100 μg/ml sequence, 48 h, treated vs control cells
Experimental: as §1, §2, §3, §8

Sequence	% INCREASE FasL (FasL [1]) [%]	% INCREASE FasL (FasL [2]) [%]	% INCREASE Fas (Fas [3]) [%]	% INCREASE Fas (Fas [4]) [%]	% INCREASE FasL (FasL [5]) [%]	% INCREASE FasL (FasL [6]) [%]	% INCREASE FasL (FasL [7]) [%]	% INCREASE FasL (FasL [8]) [%]	% INCREASE Fas (Fas [9]) [%]	% INCREASE Fas (Fas [10]) [%]	% INCREASE FasL (FasL [11]) [%]	% INCREASE Fas (Fas [12]) [%]	% INCREASE FasL (FasL [13]) [%]	% INCREASE Fas (Fas [14]) [%]	% INCREASE Fas (Fas [15]) [%]	% INCREASE Fas (Fas [16]) [%]
CTGTCT [SEQ ID NO:11]	128	55	45	73	476	165	26	413	17	310	93	52	156	203	15	107
GGTGGG [SEQ ID NO:4]	110	8	62	106	59	29	−17	22	21	57	14	41	113	61	−1	106
GGAAGG [SEQ ID NO:14]	84	−4	1	62	162	14	−31	88	26	112	1	15	8	67	−15	46
CCGTCC [SEQ ID NO:8]	322	311	55	200	1147	459	32	151	0	1046	95	83	149	107	58	282
GGTTGG [SEQ ID NO:13]	83	−3	47	99	−32	25	−3	86	23	−3	10	22	98	99	16	75
ATGTAT [SEQ ID NO:10]	214	68	42	129	457	150	33	393	44	377	114	93	95	246	34	90
TGTGTG [SEQ ID NO:1]	121	40	72	122	260	213	37	93	29	126	70	64	112	52	49	84
GTGTGT [SEQ ID NO:2]	135	5	72	155	99	77	24	43	34	94	69	77	154	52	60	93
TGGTTG [SEQ ID NO:9]	481	241	143	255	1322	397	53	952	184	1043	270	221	300	362	63	180
AAGTAA [SEQ ID NO:7]	21	−16	6	12	−26	−10	−22	−21	0	13	−2	16	−1	−4	−12	16
GGCCGG [SEQ ID NO:15]	78	−4	23	63	−29	18	−27	41	12	6	−2	19	58	75	0	56
TCGTTC [SEQ ID NO:12]	98	171	47	56	847	74	−3	75	111	597	224	126	112	121	9	105
TTTGTT [SEQ ID NO:3]	528	344	108	361	1528	549	103	497	199	1165	341	193	231	258	108	279
TTGTTT [SEQ ID NO:6]	159	73	57	143	441	152	24	140	40	338	98	65	132	126	41	116
